Measured values from patent publication US20030103945A1, “Methods and compositions for stimulating axon regeneration and preventing neuronal cell degeneration” (priority 2001, published 2003).
Where a SMILES comes first, the peptide text is derived from it. The star is where a group is joined. Cbz = O=C(OCc1ccccc1)*; CH2F = FC*

Key:
[1] = tested on: RGCs; assay: Dissociated retinal cell culture, RGC survival and neurite outgrowth; type: cell-based, mouse; parameters: RGC death in dissociated retinal cell culture: dose or concentration left out as unconfirmed
Description: Whether these two activities of neurons, survival and axonal growth, can be separated in vitro was next examined. The anti-apoptotic function of bcl-2 is well established (Davies, A. A TINS 18, 355-358 (1995); Korsmeyer, S. J. hnmunol. Today 13, 285-288 (1992); Farlie, et al. Proc. Natl. Acad Sci. USA 92, 4397-4401 (1995); Bonfanti, L. et al. J Neurosci. 16, 4186-4194 (1996)). Therefore, it is especially important to examine whether its growth-promoting activity is simply an indirect consequence of supporting cell survival. […] Note that this occurs in the absence of any neurotrophic factors added to the culture medium. The effect of the ICE inhibitor was also tested in the explant coculture system with tissue prepared from wild-type P2 mice. […] While treatment with ZVAD was sufficient to prevent death of RGCs, it is not sufficient to promote axonal growth. […]
The brain sections were visualized with a Nikon microscope and site of the lesion was reconstructed in 3 dimensions with MIT Neurotrace computer software. […] Cell death was detected by staining with the fluorescent dye, SYTOX green fluorescent dead cell stain (Molecular Probes). […]

[2] = tested on: retinal explants; assay: Retinotectal explant coculture, cell death (SYTOX green) and retinal axon growth; type: cell-based, mouse; parameters: protection of cells from death compared with bcl-2 transgenic mouse: dose or concentration left out as unconfirmed; conditions: wild-type P2 mice
Description: Whether these two activities of neurons, survival and axonal growth, can be separated in vitro was next examined. The anti-apoptotic function of bcl-2 is well established (Davies, A. A TINS 18, 355-358 (1995); Korsmeyer, S. J. hnmunol. Today 13, 285-288 (1992); Farlie, et al. Proc. Natl. Acad Sci. USA 92, 4397-4401 (1995); Bonfanti, L. et al. J Neurosci. 16, 4186-4194 (1996)). Therefore, it is especially important to examine whether its growth-promoting activity is simply an indirect consequence of supporting cell survival. […] Note that this occurs in the absence of any neurotrophic factors added to the culture medium. The effect of the ICE inhibitor was also tested in the explant coculture system with tissue prepared from wild-type P2 mice. […] While treatment with ZVAD was sufficient to prevent death of RGCs, it is not sufficient to promote axonal growth. […] Evidence from other investigators (when viewed in conjunction with that provided herein) also support the theme that cell survival and axonal growth are two independent activities of neurons (Sagot, Y., Tan, S. A-Hammang, J. P., Aebischer, P. & Kato, A. C. J Neurosci. 16, 2335-2341 (1996); Dusart, 1. & Sotelo, C. J Comp. Neurol. 347, 211-232 (1994)). The regenerative failure of retinal axons and the decrease of bcl-2 levels in RGCs occur (E 18) before programmed cell death starts (P 1 P5) (Young, R. W. J Comp. Neurol. 229, 362-373 (1984)). […] These all support the position that bcl-2 promotes axonal growth through a mechanism independent of its anti apoptotic activity.
Brains were dissected into ice-cold Gey's balanced salt solution enriched with glucose. […] Retinal explants were abutted against tectal slices. Tissues were placed on the microporous membrane of Millicell wells (Millipore) and maintained in NeuralBasal medium supplemented with B27 (GIBCO Inc., New York) at 370C for five days. To exclude the possibility that tectal tissues from mutant mice may affect axonal growth of RGCs, a series of parallel experiments were performed in which one retinal explant of each mouse was confronted with the tecturn from the same mouse, while the second retinal explant was placed against the tecturn from another mouse. With this arrangement, retinal explants from each animal had the possibility of being cocultured with the tecturn from a wild-type, heterozygous, or homozygous animal. The number of regenerating axons was sampled by applying the lipophilic carbocyanine fluorescent label, DiI, in crystals to fixed retinal explants. The cocultures were stored in fixative for two-four weeks to allow diffusion of the dye, and labeled retinal axons were viewed with a fluorescence microscope (Nikon).
The brain sections were visualized with a Nikon microscope and site of the lesion was reconstructed in 3 dimensions with MIT Neurotrace computer software. Primary cultures of dissociated retinal cells were prepared from […] wild type or transgenic animals. RGCs were prelabeled by injecting DiI solution (25% in Dimethyl Formamide) into the tectal region bilaterally in PO pups. Cells were plated in 24-cell wells treated with poly-L-lysine (10 μg/ml, 4° C. overnight) and coated with Human Merosin ([…], r.t., 2 hr)(Meyer-Franke, A. and Barres, B. A. Neuron 15, 805-819 (1995)). Cultures were maintained for 2 to 3 days in NeuralBasal medium supplemented with B27. […] Cell death was detected by staining with the fluorescent dye, SYTOX green fluorescent dead cell stain (Molecular Probes). […]

[3] = increasing concentration of ZVAD (50, 100, 200)

Compound: CC(C)[C@H](NC(=O)OCc1ccccc1)C(=O)N[C@@H](C)C(=O)N[C@@H](CC(=O)O)C(=O)CF [ZVAD, Z-Val-Ala-Asp-CH2F] (Cbz-Val-Ala-Asp-CH2F)
- RGC death in dissociated retinal cell culture ([1]; 2 days in culture, retinae of P2 pups): effectively reduced RGC death
- morphology and neurites of labeled RGCs from wild-type animals ([1]; ZVAD-treated dissociated culture, no neurotrophic factors added): round and devoid of neurites
- number of axons that invaded tectal slices, wild-type cultures versus bcl-2 transgenic mice ([2]; 200 mM ZVAD): 10 fold less
- number of dying cells in retinal explants with increasing concentration [2, 3]: decreased
- number of growing axons with increasing concentration [2, 3]: did not change significantly
- protection of cells from death compared with bcl-2 transgenic mouse [2]: protected cells from death almost as well as bcl-2 in the transgenic mouse
- extent of cell death in retinal explants ([2]; explant coculture): reduced the extent of cell death in retinal explants
